Source: patent US20240317727A1 (Duke University, priority 2018, published 2024)

Assays:
PC-3 = experiment: NCI60 cell growth and viability: PC-3; format: cell-based; conditions: PC-3, Prostate Cancer, two days
SK-MEL-28 = experiment: NCI60 cell growth and viability: SK-MEL-28; format: cell-based; conditions: SK-MEL-28, Melanoma, two days
RXF 393 = experiment: NCI60 cell growth and viability: RXF 393; format: cell-based; conditions: RXF 393, Renal Cancer, two days
MALME-3M = experiment: NCI60 cell growth and viability: MALME-3M; format: cell-based; conditions: Melanoma, two days
MCF7 = experiment: NCI60 cell growth and viability: MCF7; format: cell-based; conditions: MCF7, Breast Cancer, two days
A498 = experiment: NCI60 cell growth and viability: A498; format: cell-based; conditions: A498, Renal Cancer, two days
OVCAR-8 = experiment: NCI60 cell growth and viability: OVCAR-8; format: cell-based; conditions: OVCAR-8, Ovarian Cancer, two days
BT-549 = experiment: NCI60 cell growth and viability: BT-549; format: cell-based; conditions: BT-549, Breast Cancer, two days
CCRF-CEM = experiment: NCI60 cell growth and viability: CCRF-CEM; format: cell-based; conditions: Leukemia, two days
TK-10 = experiment: NCI60 cell growth and viability: TK-10; format: cell-based; conditions: TK-10, Renal Cancer, two days
SF-268 = experiment: NCI60 cell growth and viability: SF-268; format: cell-based; conditions: SF-268, CNS Cancer, two days
[1] = tested on: cancer cell lines in the NCI60 collection; experiment: NCI60 collection, cell growth and viability (overall); format: cell-based; conditions: incubated for two days, FIG. 8
Protocol: FIG. 8 is a graph showing the compounds of the disclosure suppress the growth of a broad range of cancer types. […] The cancer origins of the different cell lines are indicated with different colors.
HSF1 binding compounds were tested for its activity in suppressing the growth of a broad range of cancer types. For example, Compound 0017 was incubated for two days with a diverse series of cancer cell lines in the NCI60 collection and cell growth and viability were measured, and the results are shown in Table 4.

HCT-15 = experiment: NCI60 cell growth and viability: HCT-15; format: cell-based; conditions: HCT-15, Colon Cancer, two days
SW-620 = experiment: NCI60 cell growth and viability: SW-620; format: cell-based; conditions: SW-620, Colon Cancer, two days
SF-295 = experiment: NCI60 cell growth and viability: SF-295; format: cell-based; conditions: SF-295, CNS Cancer, two days
SR = experiment: NCI60 cell growth and viability: SR; format: cell-based; conditions: Leukemia, two days
UACC-257 = experiment: NCI60 cell growth and viability: UACC-257; format: cell-based; conditions: UACC-257, Melanoma, two days
[2] = tested on: C4/2 scramble and HSF1-knockdown cell lines; experiment: C4/2 scramble vs HSF1-knockdown cell line; format: cell-based, human
Protocol: GAPDH was used as a loading control. […] Hsp70 is a gene activated by HSF1 and STAT6 is a gene repressed by HSF1. […] Shown is the solvent (DMSO) or two concentrations of Compound 0017 at 2.5 and 5 μM. ns=not significant; *=P<0.05; **=P<0.01 in accordance with one embodiment of the present disclosure.

M14 = experiment: NCI60 cell growth and viability: M14; format: cell-based; conditions: M14, Melanoma, two days
K-562 = experiment: NCI60 cell growth and viability: K-562; format: cell-based; conditions: K-562, Leukemia, two days
RPMI-8226 = experiment: NCI60 cell growth and viability: RPMI-8226; format: cell-based; conditions: RPMI-8226, Leukemia, two days
[3] = Homo sapiens, 48 h, read-out: log10 [GI50 (M)] (converted)
[4] = Homo sapiens, 48 h, read-out: log10 [LC50 (M)] (converted)

## O=C(Nc1ccc(F)cc1)Nc1ccc(Cl)c([N+](=O)[O-])c1 [Compound 0017, 1-(4-chloro-3-nitrophenyl)-3-(4-fluorophenyl)urea]
PC-3; [3]
  GI50: 1.58e-06 M
PC-3; [4]
  CC50: 4.37e-05 M
PC-3
  log10 [TGI (M)]: −4.95 log10 M
SK-MEL-28; [3]
  GI50: 3.8e-06 M
SK-MEL-28; [4]
  CC50: 3.8e-05 M
SK-MEL-28
  log10 [TGI (M)]: −4.85 log10 M
RXF 393; [3]
  GI50: 1.74e-06 M
RXF 393; [4]
  CC50: 2.82e-05 M
RXF 393
  log10 [TGI (M)]: −5.17 log10 M
MALME-3M; [3]
  GI50: 2.34e-06 M
MALME-3M; [4]
  CC50: 2.95e-05 M
MALME-3M
  log10 [TGI (M)]: −5.14 log10 M
MCF7; [3]
  GI50: 2.63e-06 M
MCF7; [4]
  CC50: 7.08e-05 M
MCF7
  log10 [TGI (M)]: −4.92 log10 M
A498
  log10 [TGI (M)]: −5.24 log10 M
A498; [3]
  GI50: 1.82e-06 M
A498; [4]
  CC50: 2.34e-05 M
OVCAR-8; [3]
  GI50: 2.95e-06 M
OVCAR-8; [4]
  CC50: ≥ 0.0001 M
OVCAR-8
  log10 [TGI (M)]: −4.82 log10 M
BT-549
  log10 [TGI (M)]: −4.97 log10 M
BT-549; [3]
  GI50: 2.88e-06 M
BT-549; [4]
  CC50: 3.31e-05 M
CCRF-CEM; [3]
  GI50: 3.31e-06 M
CCRF-CEM; [4]
  CC50: ≥ 0.0001 M
CCRF-CEM
  log10 [TGI (M)]: −4.00 log10 M
TK-10; [3]
  GI50: 4.07e-06 M
TK-10; [4]
  CC50: 6.92e-05 M
TK-10
  log10 [TGI (M)]: −4.70 log10 M
SF-268; [3]
  GI50: 4.47e-06 M
SF-268; [4]
  CC50: 5.75e-05 M
SF-268
  log10 [TGI (M)]: −4.76 log10 M
[1]
  growth of a broad range of cancer cells: inhibited the growth of a broad range of cancer cells
HCT-15
  log10 [TGI (M)]: −4.92 log10 M
HCT-15; [3]
  GI50: 2.95e-06 M
HCT-15; [4]
  CC50: 3.72e-05 M
SW-620; [3]
  GI50: 3.47e-06 M
SW-620; [4]
  CC50: 4.79e-05 M
SW-620
  log10 [TGI (M)]: −4.86 log10 M
SF-295; [3]
  GI50: 2.29e-06 M
SF-295; [4]
  CC50: 3.09e-05 M
SF-295
  log10 [TGI (M)]: −5.10 log10 M
SR; [3]
  GI50: 3.39e-06 M
SR; [4]
  CC50: ≥ 0.0001 M
SR
  log10 [TGI (M)]: −4.00 log10 M
UACC-257; [3]
  GI50: 2.75e-06 M
UACC-257; [4]
  CC50: 3.09e-05 M
UACC-257
  log10 [TGI (M)]: −5.05 log10 M
[2]; 2.5 and 5 μM, FIG. 5C
  cell viability, HSF1-expressing vs HSF1-knockdown C4/2 cells: preferentially reduces cell viability
[2]; 48-hour treatment, in C4/2 scramble cell line, but not in HSF1-knockdown cell line, FIG. 5B
  Hsp70 and STAT6 expression: inhibition of Hsp70 expression and de-repression of STAT6
M14; [3]
  GI50: 3.16e-06 M
M14; [4]
  CC50: 3.8e-05 M
M14
  log10 [TGI (M)]: −4.91 log10 M
K-562; Homo sapiens, K562, 48 h, read-out: log10 [GI50 (M)] (converted)
  GI50: 3.24e-06 M
K-562; Homo sapiens, K562, 48 h, read-out: log10 [LC50 (M)] (converted)
  CC50: ≥ 0.0001 M
K-562
  log10 [TGI (M)]: −4.00 log10 M
RPMI-8226; [3]
  GI50: 1.91e-06 M
RPMI-8226; [4]
  CC50: ≥ 0.0001 M
RPMI-8226
  log10 [TGI (M)]: −5.07 log10 M
